# Measured values reported in patent publication US20260200946A1, “KRAS(G12V) INHIBITORS” (Ranok Therapeutics (Hangzhou) Co. Ltd., priority 2022, published 2026).
# Tested on: NCIH727 cells
# Experiment: Cancer cell line proliferation (CellTiter-Glo), NCI-H727
# Format: cell-based
# Conditions: Homo sapiens, 72 h, NCIH727 lung carcinoid, heterozygous G12V
# Procedure: Cell lines were cultured essentially according to ATCC recommendations.
# SW620 and NCIH727 cells were plated in 384-well tissue culture plates at 1,000 cells/well and incubated at 37° C./5% CO2 for 72 hr in 40 μl of media. […] Each cell line was then treated with test compounds at various concentrations with a final concentration of 0.5% DMSO/well, and then incubated at 37° C./5% CO2 for 72 hr. 40 μl of CellTiter-Glo® Reagent (Promega Corporation, Madison, WI) was added to each well and processed according manufacturer's protocol. Results were analyzed and IC50 values were calculated in GraphPad 8.0 software.
row,SMILES,EC50 [nM]
1,C#Cc1c(F)ccc2cc(O)cc(-c3nc(OC)c4c(N5CC6CCC(C5)N6C(=O)C(C)=O)nc(OCC5(CN6CC7CC7C6)CC5)nc4c3F)c12 (centres unmarked) [Example 124],100 to 1000
2,[2H]C([2H])([2H])Oc1nc(-c2cc(O)cc3ccc(F)c(C#C)c23)c(F)c2nc(OCC3(CN4CC5CC5C4)CC3)nc(N3CC4CCC(C3)N4C(=O)C(C#N)CC(F)(F)F)c12 (centres unmarked) [Example 125],100 to 1000
3,C#Cc1c(F)ccc2cc(O)cc(-c3nc(OC)c4c(N5CC6CCC(C5)N6C(=O)C(C#N)CC)nc(OCC5(CN6CC7CC7C6)CC5)nc4c3F)c12 (centres unmarked) [Example 126],100 to 1000
4,O=CO.[2H]C([2H])([2H])Oc1nc(-c2cc(O)cc3ccc(F)c(C#C)c23)c(F)c2nc(OCC3(CN4CC5CC5C4)CC3)nc(N3CC4CCC(C3)N4C(=O)C(C#N)CC#N)c12 (centres unmarked) [Example 127],100 to 1000
5,C#Cc1c(F)ccc2cc(O)cc(-c3nc(OC)c4c(N5CC6CCC(C5)N6C(=O)CC[N+](=O)[O-])nc(OCC5(CN6CC7CC7C6)CC5)nc4c3F)c12 (centres unmarked) [Example 128],100 to 1000
6,C#Cc1c(F)ccc2cc(O)cc(-c3nc(OC)c4c(N5CC6CCC(C5)N6C(=O)N5CC(C#N)C5)nc(OCC5(CN6CC7CC7C6)CC5)nc4c3F)c12 (centres unmarked) [Example 130],< 100
7,C#Cc1c(F)ccc2cc(O)cc(-c3nc(OC)c4c(N5CC6CCC(C5)N6C(=O)C(CC#N)CC#N)nc(OCC5(CN6CC7CC7C6)CC5)nc4c3F)c12 (centres unmarked) [Example 131],100 to 1000
8,C#Cc1c(F)ccc2cc(O)cc(-c3nc(OC)c4c(N5CC6CCC(C5)N6C(=O)CCC=O)nc(OCC5(CN6CC7CC7C6)CC5)nc4c3F)c12 (centres unmarked) [Example 132],100 to 1000
9,C#Cc1c(F)ccc2cc(O)cc(-c3nc(OC)c4c(N5CC6CCC(C5)N6C(=O)NCC(F)(F)F)nc(OCC5(CN6CCC(C#N)CC6)CC5)nc4c3F)c12 [Example 133],< 100
10,C#Cc1c(F)ccc2cc(O)cc(-c3nc(OC)c4c(N5CC6CCC(C5)N6C(=O)NC(C)C#N)nc(OCC5(CN6CCC(C#N)CC6)CC5)nc4c3F)c12 (centres unmarked) [Example 134],< 100
11,C#Cc1c(F)ccc2cc(O)cc(-c3nc(OC)c4c(N5CC6CCC(C5)N6C(=O)NC(C)C#N)nc(OCC5(CN6CCC(C(F)(F)F)CC6)CC5)nc4c3F)c12 (centres unmarked) [Example 135],< 100
12,C#Cc1c(F)ccc2cc(O)cc(-c3nc(OC)c4c(N5CC6CCC(C5)N6C(=O)NCC(F)(F)F)nc(OCC5(CN6CCC(C(F)(F)F)CC6)CC5)nc4c3F)c12 [Example 136],< 100
13,C#Cc1c(F)ccc2cc(O)cc(-c3nc(OC)c4c(N5CC6CCC(C5)N6C)nc(OCC5(CN6CC7CC7C6)CC5)nc4c3F)c12 (centres unmarked) [Example 137],> 1000
14,C#Cc1c(F)ccc2cc(O)cc(-c3nc(OC)c4c(N5CC6CCC(C5)N6C(=O)COC(F)(F)F)nc(OCC5(CN6CC7CC7C6)CC5)nc4c3F)c12 (centres unmarked) [Example 138],100 to 1000
15,C#Cc1c(F)ccc2cc(O)cc(-c3nc(OC)c4c(N5CC6CCC(C5)N6C(=O)C(C)(C#N)CC#N)nc(OCC5(CN6CC7CC7C6)CC5)nc4c3F)c12 (centres unmarked) [Example 139],100 to 1000
16,C#Cc1c(F)ccc2cc(O)cc(-c3nc(OC)c4c(N5CC6CCC(C5)N6C(=O)C(C)CC#N)nc(OCC5(CN6CC7CC7C6)CC5)nc4c3F)c12 (centres unmarked) [Example 141],100 to 1000
17,C#Cc1c(F)ccc2cc(O)cc(-c3nc(OC)c4c(N5CC6CCC(C5)N6C)nc(OCC5(CN6CCC(C(F)(F)F)CC6)CC5)nc4c3F)c12 [Example 142],> 1000
18,C#Cc1c(F)ccc2cc(O)cc(-c3nc(OC)c4c(N5CC6CCC(C5)N6C(=O)N5CC6CC6C5)nc(OCC5(CN6CC7CC7C6)CC5)nc4c3F)c12 (centres unmarked) [Example 143],100 to 1000
19,C#Cc1c(F)ccc2cc(O)cc(-c3nc(OC)c4c(N5CC6CCC(C5)N6C(=O)NCC)nc(OCC5(CN6CC7CC7C6)CC5)nc4c3F)c12 (centres unmarked) [Example 144],100 to 1000

row,SMILES,EC50 [nM]
1,C#Cc1c(F)ccc2cc(O)cc(-c3nc(OC)c4c(N5CC6CCC(C5)N6C(=O)NC5CC(C#N)C5)nc(OCC5(CN6CC7CC7C6)CC5)nc4c3F)c12 (centres unmarked) [Example 145],100 to 1000
2,C#CCC(C#N)C(=O)N1C2CCC1CN(c1nc(OCC3(CN4CC5CC5C4)CC3)nc3c(F)c(-c4cc(O)cc5ccc(F)c(C#C)c45)nc(OC)c13)C2 (centres unmarked) [Example 146],100 to 1000
3,C#Cc1c(F)ccc2cc(O)cc(-c3nc(OC)c4c(N5CC6CCC(C5)N6C(=O)CC(C)(C)C#N)nc(OCC5(CN6CC7CC7C6)CC5)nc4c3F)c12 (centres unmarked) [Example 148],< 100
4,C#Cc1c(F)ccc2cc(O)cc(-c3nc(OC)c4c(N5CC6CCC(C5)N6C(=O)C5CNC(=O)C5)nc(OCC5(CN6CC7CC7C6)CC5)nc4c3F)c12 (centres unmarked) [Example 149],> 1000
5,C#Cc1c(F)ccc2cc(O)cc(-c3nc(OC)c4c(N5CC6CCC(C5)N6C(=O)C5CC(F)(C(C)C)C5)nc(OCC5(CN6CC7CC7C6)CC5)nc4c3F)c12 (centres unmarked) [Example 150],100 to 1000
6,C#Cc1c(F)ccc2cc(O)cc(-c3nc(OC)c4c(N5CC6CCC(C5)N6C(=O)C5CN(C)C5)nc(OCC5(CN6CC7CC7C6)CC5)nc4c3F)c12 (centres unmarked) [Example 151],> 1000
7,C#Cc1c(F)ccc2cc(O)cc(-c3nc(OC)c4c(N5CC6CCC(C5)N6C(=O)c5cocn5)nc(OCC5(CN6CC7CC7C6)CC5)nc4c3F)c12 (centres unmarked) [Example 153],100 to 1000
8,C#Cc1c(F)ccc2cc(O)cc(-c3nc(OC)c4c(N5CC6CCC(C5)N6C(=O)C5CC(F)(F)CO5)nc(OCC5(CN6CC7CC7C6)CC5)nc4c3F)c12 (centres unmarked) [Example 154],100 to 1000
9,C#Cc1c(F)ccc2cc(O)cc(-c3nc(OC)c4c(N5CC6CCC(C5)N6C(=O)C5C6CCOC65)nc(OCC5(CN6CC7CC7C6)CC5)nc4c3F)c12 (centres unmarked) [Example 155],< 100
10,C#Cc1c(F)ccc2cc(O)cc(-c3nc(OC)c4c(N5CC6CCC(C5)N6C(=O)CCNC)nc(OCC5(CN6CC7CC7C6)CC5)nc4c3F)c12 (centres unmarked) [Example 157],> 1000
11,C#Cc1c(F)ccc2cc(O)cc(-c3nc(OC)c4c(N5CC6CCC(C5)N6C(=O)NC5CN(C)C5)nc(OCC5(CN6CC7CC7C6)CC5)nc4c3F)c12 (centres unmarked) [Example 158],> 1000
12,C#Cc1c(F)ccc2cc(O)cc(-c3nc(OC)c4c(N5CC6CCC(C5)N6C(=O)N(C)CC(F)(F)F)nc(OCC5(CN6CC7CC7C6)CC5)nc4c3F)c12 (centres unmarked) [Example 159],100 to 1000
13,C#Cc1c(F)ccc2cc(O)cc(-c3nc(OC)c4c(N5CC6CCC(C5)N6C(=O)OCC#N)nc(OCC5(CN6CC7CC7C6)CC5)nc4c3F)c12 (centres unmarked) [Example 161],< 100
14,C#Cc1c(F)ccc2cc(O)cc(-c3nc(OC)c4c(N5CC6CCC(C5)N6C(=O)NC(C)C(F)(F)F)nc(OCC5(CN6CC7CC7C6)CC5)nc4c3F)c12 (centres unmarked) [Example 163],100 to 1000
15,C#Cc1c(F)ccc2cc(O)cc(-c3nc(OC)c4c(N5CC6CCC(C5)N6C(=O)OCC)nc(OCC5(CN6CC7CC7C6)CC5)nc4c3F)c12 (centres unmarked) [Example 164],100 to 1000
16,C#Cc1c(F)ccc2cc(N)cc(-c3nc(OC)c4c(N5CC6CCC(C5)N6C(=S)NC(C)C#N)nc(OCC5(CN6CC7CC7C6)CC5)nc4c3F)c12 (centres unmarked) [Example 166],> 1000
17,C#Cc1c(F)ccc2cc(O)cc(-c3nc(OC)c4c(N5CC6CCC(C5)N6C(=O)C5CC(F)(F)C5(F)F)nc(OCC5(CN6CC7CC7C6)CC5)nc4c3F)c12 (centres unmarked) [Example 167],> 1000
18,C#Cc1c(F)ccc2cc(O)cc(-c3nc(OC)c4c(N5CC6CCC(C5)N6C(=O)CCN(C)OC)nc(OCC5(CN6CC7CC7C6)CC5)nc4c3F)c12 (centres unmarked) [Example 168],100 to 1000

# Same assay, conditions: Homo sapiens, NCIH727 lung carcinoid, heterozygous G12V, 72 hr
row,SMILES,EC50 [nM]
1,C#Cc1c(F)ccc2cc(O)cc(-c3nc(OC)c4c(N5CC6CCC(C5)N6C(=O)OCC(F)(F)F)nc(OCC5(CN6CC7CC7C6)CC5)nc4c3F)c12 (centres unmarked) [Example 162],100 to 1000
